Experimental findings from US20130324617A1, “CROWN-LIKE STRUCTURES AS A BIOMARKER FOR CANCER RISK AND CANCER PROGNOSIS” (MEMORIAL SLOAN-KETTERING CANCER CENTER, priority 2011, published 2013) are described below.

One experiment has as its system NF-κB. Kind of experiment: NF-κB-luciferase reporter assay in THP-1 cells. The class given is cell-based, human. The conditions noted are these: for NF-κB-luciferase activity in THP-1 cells: 10 μmol/L fatty acid, 24 hours. As for the experimental part: NF-κB-luciferase (Panomics) and pSVβgal (Promega) were transfected into THP-1 cells using the Amaxa system. After 24 hours of incubation, the medium was replaced with basal medium. The activities of luciferase (BD Biosciences) and β-galactosidase were measured in cellular extracts. For siRNA transfections, THP-1 cells were plated at 60% confluence and transfected with non-targeting siRNA or siRNA targeting TNF-α, IL-1β, Cox-2 and p65 using Dharmafect 4 for 36 hours. Subsequently, the cells were treated with vehicle or saturated fatty acids.
To investigate the potential role of the transcription factor NF-κB in saturated fatty acid-mediated induction of TNF-α, IL-1β and Cox-2 in macrophages, transient transfection assays were performed in saturated fatty acid-treated THP-1 cells with an NF-κB-luciferase reporter construct and pSV-βgal constructs.
The effects of BAY11-7082, a pharmacological inhibitor of NF-κB, were evaluated. THP-1 cells were transiently transfected with NF-κB-luciferase and pSV-βgal constructs and cells were subsequently treated with vehicle, 10 μmol/L SA or SA plus 0, 5 or 10 μmol/L of BAY11-7082 (InvivoGen) for 12 hours. NF-κB luciferase activity was normalized to β-galactosidase activity. Additionally, THP-1 cells were treated with vehicle (control), 10 μmol/L SA or SA plus 10 μmol/L BAY11-7082 for 24 hours. Levels of TNF-α protein, IL-1β protein and PGE2 in the CM were determined by enzyme immunoassay. Preadipocytes were treated with THP-1 cell-derived CM for 24 hours prior to measurements of aromatase mRNA and activity.
For orientation: Reporter assays use an easily measured gene product as a stand-in for the process of interest.

For the next experiment, the system named is THP-1 cells. The experiment is described as follows: Pro-inflammatory mediators (TNF-α, IL-1β, Cox-2, PGE2) in saturated fatty acid-treated THP-1 cells. As to conditions: for induction of TNF-α in THP-1 cells: 0, 2.5, 5, 10 μmol/L saturated fatty acid, 24 hours, real-time PCR. The class given is cell-based, human. As for the experimental part: (§1) THP-1 cells (ATCC) were maintained in RPMI-1640 medium (Invitrogen) supplemented with 10% FBS. These cells were treated with phorbol 12-myristate 13-acetate (10 ng/mL) overnight to differentiate them into macrophages. Human monocytes (Astarte Biologics) were activated with IFNγ (15 ng/mL) and lipopolysaccharide (15 ng/mL) in RPMI-1640 medium for 4 days. THP-1 cells and blood monocyte-derived macrophages were then treated with saturated fatty acids (Nu-CheK Prep) as indicated. To prepare conditioned medium (CM), the cells were treated with saturated fatty acids for 12 hours in medium comprised of RPMI-1640 and preadipocyte medium (ScienCellTMResearch Laboratories) at a 1:1 ratio. Following treatment with fatty acids, the medium was removed and cells were washed thrice with PBS to remove fatty acids. Subsequently, fresh medium was added for 24 hours. This CM was then collected and centrifuged at 4,000 rpm for 30 minutes to remove cell debris. CM was used to treat preadipocytes.
(§2) Lysates were prepared by treating cells with lysis buffer, sonicating for 20 seconds on ice and centrifuging at 10,000×g for 10 minutes to remove particulate material. The protein concentration of the supernatant was measured by the method of Lowry et al. (Lowry 1951). SDS-PAGE was done under reducing conditions on 10% polyacrylamide gels. The resolved proteins were transferred onto nitrocellulose sheets and incubated with primary antisera. Antibodies to phospho-p65, p65, histone H3, Cox-2 and β-actin were used (Santa Cruz Biotechnology). Secondary antibody to IgG conjugated to horseradish peroxidase was used. The blot was probed with the ECL Western blot detection system.
(§3) Total RNA was isolated using the RNeasy mini kit (Qiagen). For tissue analyses, poly A RNA was prepared with an Oligotex mRNA mini kit (Qiagen). Poly A RNA was reversed transcribed using murine leukemia virus reverse transcriptase and oligo (dT)16 primer. The resulting cDNA was then used for amplification using primers listed Table 1. GAPDH and β-actin were used as endogenous normalization controls for tissue and cell culture analyses, respectively. Real-time PCR was performed using 2×SYBR green PCR master mix on a 7500 Real-time PCR system (Applied Biosystems). Relative fold induction was determined using the ddCT (relative quantification) analysis protocol.
LC/MS/MS analyses were performed using a Tandem Quadrupole Mass Spectrometer (Agilent) equipped with an Agilent 1200 binary pump HPLC system using a modified version of the method of Yang 2006. PGs were chromatographically separated using a Gemini 3-μm C6-phenyl 4.6×100 mm analytical column (Phenomenex). The mobile phase consisted of 0.1% formic acid in water (mobile phase A) and 0.1% formic acid in acetonitrile (mobile phase B). The chromatographic baseline resolution for the PGs of interest was achieved using a linear gradient that went from 20% to 40% mobile phase B for 12 minutes and then from 40% to 70% for 8 minutes. This was then increased to 90% mobile phase B over the next 2 minutes and kept at this level for an additional 3 minutes. The flow rate was 0.8 mL/min with a column temperature of 40° C. The mass spectrometer was operated in negative electrospray ionization mode with capillary voltage of 2.9 kV, a cone gas flow rate of […] and a shear gas flow rate of 12 mL/minute at 350° C. PGs were detected and quantified using multiple reaction mode monitoring of the transitions m/z 351 to 271 for PGE2 and m/z 355 to 275 for PGE2-d4. The results are expressed as nanograms of PGE2 per mg of protein. For measurements of PGE2 in cell culture media, EIA kits were used (Cayman Chemicals).
TNF-α and IL-1β levels were quantified in cell culture media using EIA kits (R & D systems).
Experiments were carried out in vitro to determine if saturated fatty acids stimulated the production of pro-inflammatory molecules by macrophages leading, in turn, to elevated aromatase expression in preadipocytes.
(In general: Quantitative PCR measures a nucleic acid by following its amplification.)

The test system of experiment [1] is aromatase in human preadipocytes. The experiment is described as follows: Induction of aromatase mRNA and activity in preadipocytes by macrophage-derived conditioned medium. In kind it is cell-based. The conditions noted are these: for aromatase mRNA and activity in human preadipocytes: preadipocytes treated 24 hours. The procedure:
Human visceral preadipocytes (ScienCell™) were grown in preadipocyte medium containing 10% FBS.
as §1, §3
To determine aromatase activity, microsomes were prepared from cell lysates and tissues by differential centrifugation using established methods (Subbaramaiah 2006). Aromatase activity was quantified by measurement of the tritiated water released from 1β-[^3H]-androstenedione (Subbaramaiah 2008). The reaction was also performed in the presence of letrozole, a specific aromatase inhibitor, as a specificity control and without NADPH as a background control. Aromatase activity was normalized to protein concentration.
Further, to investigate whether conditioned medium from saturated fatty acid-treated macrophages induced aromatase in preadipocytes, THP-1 cells or human blood monocyte-derived macrophages were treated with 0, 2.5, 5 or 10 μmol/L LA, MA, PA or SA as described above to generate CM (n=6). This CM was used to treat preadipocytes for 24 hours. Aromatase mRNA and activity levels were determined. Treatment with CM derived from either saturated fatty acid-treated THP-1 cells or human blood monocyte-derived macrophages induced aromatase mRNA and activity in human preadipocytes. Neutralizing either TNF-α or IL-1β by incubating the CM from SA-treated cells with neutralizing antibodies to TNF-α, IL-1β or control IgG overnight at 4° C. attenuated CM-mediated induction of aromatase in preadipocytes.
Next, THP-1 cells were transfected as indicated with control siRNA or TNF-α siRNA, IL-1β siRNA or Cox-2 siRNA for 36 hours. Cells were then treated with vehicle (control) or 10 μmol/L SA as described above. The levels of TNFα, IL-1β and PGE2 were measured by enzyme immunoassay in the CM. Cox-2 protein abundance was determined by immunoblotting of whole cell lysates using β-actin was used as a loading control. Preadipocytes were treated with THP-1 cell-derived CM for 24 hours prior to measurements of aromatase mRNA and activity. […] Following treatment, the medium was removed and cells were washed. Subsequently, fresh medium was added for 24 hours to generate CM. PGE2 production was measured in CM. Preadipocytes were treated with THP-1 cell-derived CM for 24 hours prior to measurements of aromatase mRNA and activity. […]

The next experiment has as its system p65. The experiment is described as follows: Immunoblotting of phospho-p65 and p65 in THP-1 cells. The class given is cell-based, human. The conditions noted are these: 30 minutes; for phosphorylation of p65: THP-1 cells, 0, 2.5, 5 or 10 μmol/L fatty acid. As for the experimental part: as §2
The abundance of phospho-p65 was determined by immunoblotting in cytosolic and nuclear preparations of cells treated with vehicle (control) or 10 μmol/L SA for 30 minutes. β-actin and histone H3 were used as cytosolic and nuclear markers, respectively.

The test system of a further experiment is NF-κB binding sites. The experiment is described as follows: Electrophoretic mobility shift assay of nuclear protein from THP-1 cells. The conditions noted are these: THP-1 cells, 0, 2.5, 5 or 10 μmol/L SA, 1 hour; EMSA. The class given is cell-based, human. As for the experimental part: Nuclear extracts were prepared from mouse mammary glands using an EMSA kit (Promega). For binding studies, oligonucleotides containing NF-κB sites (Active Motif) were used. The complementary oligonucleotides were annealed in 20 mmol/L Tris (pH 7.6), 50 mmol/L NaCl, 10 mmol/L MgCl2, and 1 mmol/L dithiothreitol. The annealed oligonucleotide was phosphorylated at the 5′ end with [γ-^32P]ATP and T4 polynucleotide kinase. The binding reaction was performed by incubating 5 μg of nuclear protein in 20 mmol/L HEPES (pH 7.9), 10% glycerol, 300 μg of bovine serum albumin, and 1 μg of poly(dI·dC) in a final volume of 10 μL for 10 minutes at 25° C. The labeled oligonucleotides were added to the reaction mixture and allowed to incubate for an additional 20 minutes at 25° C. The samples were electrophoresed on a 4% nondenaturing polyacrylamide gel. The gel was then dried and subjected to autoradiography at −80° C.
DNA-protein binding complexes to NF-κB binding sites were examined by electrophoretic mobility shift assays (EMSA). Nuclear protein was prepared from THP-1 cells treated with 0, 2.5, 5 or 10 μmol/L of SA for 1 hour. In another experiment, nuclear protein was prepared from THP-1 cells treated with vehicle or 10 μmol/L SA for 1 hour, and the nuclear protein was incubated with normal IgG or different concentrations of antibodies to p65. […]
Background: A gel shift assay detects complexes by their altered migration in electrophoresis.

The mark [2] stands for this setting: 10 μmol/L SA plus 10 μmol/L BAY11-7082, 24 hours, enzyme immunoassay.
Setting [3] is: CM from THP-1 cells treated with 0, 2.5, 5 or 10 μmol/L fatty acid.
Setting [4] is: CM from human blood monocyte-derived macrophages treated with 0, 2.5, 5 or 10 μmol/L fatty acid.

Molecules are shown by their SMILES.

As for `Cc1ccc(S(=O)(=O)/C=C/C#N)cc1` [BAY11-7082], the “SA-mediated activation of NF-κB (NF-κB luciferase activity)” value in the experiment with NF-κB (10 μmol/L SA plus 0, 5 or 10 μmol/L BAY11-7082, 12 hours) is “suppressed”. Also, in the experiment with THP-1 cells (setting [2]), the “production of increased amounts of IL-1β in CM” value is reported as “suppressed”, the “production of increased amounts of PGE2 in CM” value was “suppressed” and the “production of increased amounts of TNF-α in CM” value is recorded as “suppressed”. Further, the “ability of macrophage-derived CM to induce aromatase expression and activity” value in experiment [1] (following NF-κB inhibition of THP-1 cells with BAY11-7082, preadipocytes treated with CM 24 hours) is “suppressed”.
As to `CCCCCCCCCCCC(=O)O` [LA, lauric acid], the “induction of TNF-α in THP-1 cells” value in the experiment with THP-1 cells is on record as “dose-dependent induction”. Besides, the “aromatase mRNA and activity in human preadipocytes” value (shortened to “aromatase mRNA and activity”) in experiment [1] (setting [3]) and in experiment [1] (setting [4]) was “induced” in each case.
Take `CCCCCCCCCCCCCC(=O)O` [MA, myristic acid]: the “induction of TNF-α in THP-1 cells” value in the experiment on THP-1 cells is “dose-dependent induction”. The “aromatase mRNA and activity” value in experiment [1] (setting [3]) and in experiment [1] (setting [4]) was “induced” in each case.
Turning to `CCCCCCCCCCCCCCCC(=O)O` [PA, palmitic acid], the “NF-κB-luciferase activity in THP-1 cells” value in the experiment on NF-κB is reported as “induced”. Also, in the experiment with THP-1 cells, the “induction of TNF-α in THP-1 cells” value is given as “dose-dependent induction”. In addition, in the experiment on p65, the “phosphorylation of p65” value was “stimulated”. Moreover, the “aromatase mRNA and activity” value in experiment [1] (setting [3]) and in experiment [1] (setting [4]) was “induced” each time.
Regarding `CCCCCCCCCCCCCCCCCC(=O)O` [SA, stearic acid], the “NF-κB-luciferase activity in THP-1 cells” value with NF-κB was “induced”. Besides, the “induction of TNF-α in THP-1 cells” value in the experiment on THP-1 cells was “dose-dependent induction”. Also, the “phosphorylation of p65” value in the experiment with p65 is on record as “stimulated”. Besides, the “translocation of p65 from cytosol to nucleus” value in the experiment with p65 (THP-1 cells, 10 μmol/L SA) is given as “stimulated”. Besides, the “binding of nuclear protein to a 32P-labeled NF-κB consensus sequence” value with NF-κB binding sites was “stimulated”. Besides, the “aromatase mRNA and activity” value in experiment [1] (setting [3]) and in experiment [1] (setting [4]) was “induced” throughout.
